Measurements as given in patent US20030212014A1 (priority 2000, published 2003).

How the values were obtained:
HUVEC [1] = test: Fatty acid metabolism and malonyl CoA in HUVEC after 24 hr in 30 mM glucose; assay type: cell-based, human; conditions: 30 mM glucose + 1 mM AICAR
Experimental: Fatty acid oxidation was measured over 2 hours after 24 hr prelabeling with ^3H-palmitate. Data are means ±SD (n=4−6). *P<0.05; vs 5 mM glucose. † p<0.05; vs 30 mM glucose;
(§1) We have previously shown that incubation of HUVEC for 2 hr in media containing 30 mM vs 5 mM glucose causes no changes in AMPK activity, malonyl CoA concentration, fatty acid oxidation, or lactate release. […] In addition, it impaired Akt phosphorylation in the presence of insulin (FIG. 11). […] AMPK activity tended to be higher after 24 h of incubation with 30 mM glucose; however, whether it was inappropriately low, in light of the decrease in ATP content (and presumably an increased AMP/ATP ratio), was not ascertained.

[2] = test system: AMP-activated protein kinase (AMPK); test: AMP-activated protein kinase activity in HUVEC incubated with AICAR; assay type: cell-based, human
Experimental: The enzyme was assayed in a reaction mixture containing either no AMP or 0.2 mM 5′-AMP. The difference in the activity is the AMP-activated kinase activity. […] This indicates the presence of AMPK and AMPKK in HUVEC.
(§2) One of the major ATP users, the Na^+/K^+pump, was investigated. The activity of this pump was tested by measuring the uptake of radioactive rubidium in the absence and presence of ouabain, an Na^+/K^+pump inhibitor. The difference in uptake, which is referred to as ouabain-sensitive Rb^+uptake, is the Na^+/K^+pump activity. […] When the ouabain sensitive component was calculated, no ,difference was seen between the two incubations, (2.11±0.9 and 3.3±0.9 pmol/min/mg protein), thus leading us to believe that no change in Na^+/K^+pump activity had occurred. […] The AMPK activity remained high with a longer incubation time up to 120 minutes.

human retinal pericytes = test: Ceramide and DAG levels by diacylglycerol kinase method in pericytes; assay type: cell-based
Experimental: (§3) Apoptosis was induced by incubating the cells with a medium containing 0-0.5 mM palmitic acid for 3 days. Apoptotic cells were determined by conventional TUNEL staining. Ceramide and DAG levels were measured the by diacylgycerol kinase method using 32P-ATP.

Akt = Akt phosphorylation in the presence of insulin in HUVEC; assay type: cell-based, human; conditions: 30 mM glucose + 1 mM AICAR, 24 h
Experimental: Results are means±SE (n=4) *p<0.05 vs 5 mM glucose. † p<0.05 vs 30 mM glucose;
as §1

Na+/K+ pump = test: Radioactive rubidium uptake with and without ouabain in HUVEC; assay type: cell-based, human; conditions: 2 mM AICAR for 2 hours
Experimental: as §2

rats = conditions: cited from earlier work
[3] = test system: muscle ACC activity and malonyl CoA; test: ACC activity and malonyl CoA in muscle two hours after AICAR injection; assay type: in vivo, rat; conditions: 250 mg/kg
caspase-3 = test: Caspase-3 activity in HUVEC incubated with 30 mM glucose; assay type: cell-based, human; conditions: 30 mM glucose + AICAR, 24 hr
From the text: A similar effect was observed when AMPK activity was increased by infecting HUVEC with constitutively active AMPK using an adenoviral vector (FIG. 9C).

juvenile rats = test: Chronic intermittent AICAR treatment of juvenile rats; assay type: in vivo, rat
Experimental: This dose distributed in the extracellular space of the rat (approx. 20 ml/100g b. w.) yields a concentration in the extracellular space of approximately 5 mM.
Referring to FIG. 19, it can be seen that food intake was diminished by approximately 25% over the first 24 hrs following each injection. The rats appear to compensate by eating more on the following day. […] Cumulative net food intake was diminished only modestly (about 3%) during all long-term studies.
These include the GLUT 4 glucose transporter, hexokinase and various mitochondrial enzymes including cytochrome C oxidase and citrate synthase. […] Also we found no increase in muscle glycogen.

[4] = test system: human and bovine retinal pericytes; test: Palmitate-induced apoptosis in retinal pericytes (TUNEL staining); assay type: cell-based
Experimental: as §3

HUVEC [5] = test: HUVEC metabolism after 16 hrs incubation with 30 mM glucose; assay type: cell-based, human; conditions: 1 mM AICAR in 30 mM glucose
Experimental: Incubation of HUVEC with 30 mM glucose for 16 hrs decreased free fatty oxidation by 50% (FIG. 7A) and increased free fatty acid incorporation into diacylglycerol (DAG) (i.e., esterification) by 40% (FIG. 7B). These changes were accompanied by a significant decline in mitochondria membrane potential (FIG. 7C).

HUVEC [6] = test: Hyperglycemia-induced apoptosis in HUVEC (TUNEL); assay type: cell-based, human; conditions: 30 mM glucose + 1 mM AICAR
Experimental: (A) Typical TUNEL staining (dark brown) with methylene blue counter-staining. TUNEL positive cells show a typical apoptotic configuration with shrinkage and nuclear fragmentation. […] The percentage of TUNEL positive cells was determined in 3 wells of 6 well plates (24 hr) or in eight of 60 mm dishes. Data are means ±SD.*p<0.05; vs 5 mM glucose. † p<0.05; vs 30 mM glucose alone;

[7] = 1 mM AICAR vs 0.5 mM palmitate alone
[8] = 250 mg/kg, 3 days/wk over 106 days
[9] = 12-week study period, not statistically significant

Compound: NC(=O)c1ncn([C@@H]2O[C@H](CO)[C@@H](O)[C@H]2O)c1N [AICAR, 5-aminoimidizole-4-carboxamide riboside]
- concentration of malonyl-CoA (HUVEC [1]): even lower than that in cells incubated with 5 mM glucose
- diminished fatty acid oxidation caused by 30 mM glucose (HUVEC [1]): completely prevented
- increased incorporation of radioactive glucose and palmitate into diacylglycerol caused by 30 mM glucose (HUVEC [1]): completely prevented
- AMP-activated kinase activity ([2]; 0.2 mM AICAR, 30 minutes, HUVEC): 15.8±0.4 pmol/min/mg protein
- AMP-activated kinase activity ([2]; 0.5 mM AICAR, 30 minutes, HUVEC): 22.5±0.3 pmol/min/mg protein
- AMP-activated kinase activity ([2]; 2 mM AICAR, 30 minutes, HUVEC (concentration series)): 30.9±0.2 pmol/min/mg protein
- AMP-activated kinase activity ([2]; 2 mM AICAR, at 30 minutes (time course)): 30.8 pmol/min/mg protein
- AMP-activated kinase activity ([2]; 2 mM AICAR, at 60 minutes (time course)): 31.5 pmol/min/mg protein
- AMP-activated kinase activity ([2]; 2 mM AICAR, at 120 minutes (time course)): 32.3 pmol/min/mg protein
- DAG levels (human retinal pericytes; 0.5 mM palmitate + 1 mM AICAR): 24±5 nmol/mg protein
- ceramide levels (human retinal pericytes; 0.5 mM palmitate + 1 mM AICAR): 3.8±1 nmol/mg protein
- decrease in DAG levels (human retinal pericytes; [7]): 50%
- decrease in ceramide levels (human retinal pericytes; [7]): 60%
- impaired Akt phosphorylation in the presence of insulin caused by 30 mM glucose (Akt): completely prevented
- ouabain-sensitive Rb+ uptake (Na+/K+ pump activity) (Na+/K+ pump): 3.3±0.9 pmol/min/mg protein
- total rubidium uptake (Na+/K+ pump): 6.0 ±0.3 pmol/min/mg protein
- blood glucose levels (rats; 500 mg/kg/twice daily, control and diabetic rats (U.S. Pat. No. 5,658,889)): lowers
- liver size (rats; 1000 mg/kg body weight daily for 28 days (Winder)): hepatic enlargement
- muscle glycogen (rats; 1000 mg/kg/day for 28 days (Winder et al.)): increased
- ACC activity in muscle [3]: did not depress ACC significantly
- malonyl CoA levels in muscle [3]: no effect
- caspase-3 activity (caspase-3): 833±14 arbitrary unit
- decrease in food intake over the first 24 hrs following each injection (juvenile rats; 250 mg/kg 3 times/week, chow diet): approximately 25%
- hepatic enlargement (juvenile rats; 250 mg/kg intermittent regimen): no hepatic enlargement
- hepatocellular damage, morphologically (light microscope) (juvenile rats; 250 mg/kg intermittent regimen): no evidence of hepatocellular damage
- decrease in mass of intra-abdominal (retroperitoneal, mesenteric, epididymal) fat depots (juvenile rats; 250 mg/kg s.c. M, W, F for 25 days): 20-40%
- GLUT 4, UCP3, cytochrome C oxidase (RT-PCR) and citrate synthase activity in muscle (juvenile rats; [8]): no changes
- muscle glycogen (juvenile rats; [8]): no increase
- weights of the heart, liver or other organs (juvenile rats; 250 mg/kg, at 25 days): no differences
- muscle mass (juvenile rats; 250 mg/kg, at 106 days): increase in muscle mass is suggested
- decrease in food intake (juvenile rats; [9]): 3-4%
- weight gain less than control (juvenile rats; [9]): 32 g
- decrease in plasma triglycerides (juvenile rats; 25 days treatment, 250 mg/kg): 40%
- plasma leptin (juvenile rats; 25 days treatment, 24 hrs following the last injection): significantly diminished
- decrease in cumulative net food intake (juvenile rats; all long-term studies): about 3%
- glucose and insulin levels during an oral glucose tolerance test (juvenile rats; chronic AICAR treatment): lower
- plasma insulin levels (juvenile rats; chronic AICAR treatment): significantly diminished
- tolerability / gross toxicity (juvenile rats; rat, in vivo, sc, 250 mg/kg): without evidence of gross toxicity
- apoptotic cells (TUNEL) ([4]; 0.5 mM palmitate + 1 mM AICAR, 3 days): 10±2%
- decrease in apoptosis [4, 7]: 50%
- decline in mitochondria membrane potential caused by 30 mM glucose (HUVEC [5]): prevented all these changes
- decrease in free fatty acid oxidation caused by 30 mM glucose (HUVEC [5]): prevented all these changes
- increase in free fatty acid incorporation into diacylglycerol caused by 30 mM glucose (HUVEC [5]): prevented all these changes
- apoptotic rate (TUNEL-positive cells) (HUVEC [6]; 24 hours): no affect
- increase in apoptosis caused by hyperglycemia (HUVEC [6]; 72 hours): completely prevented
